Test results reported in the supplement of paper PMC11061612.

What was measured:
Capivasertib = compound: C1CN(CCC1(C(=O)N[C@@H](CCO)C2=CC=C(C=C2)Cl)N)C3=NC=NC4=C3C=CN4 [Capivasertib]
Procedure, shortened: (§1)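 Following 24 hours at 37°C and 5% CO2, cancer cell lines in 1536-well plates with 7.5 μl DMEM/F12 or RPMI and 10% FBS were dosed for 72 hours, final DMSO typically being 0.2%. CellTiter-Glo 2.0 luminescence, scaled between blank-well and DMSO-well means, gave the viability readout. Dose responses were fitted to a two-parameter logistic curve with a non-linear mixed effects model, and the single-agent IC50 was derived from this fit.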

AZD1775 = compound: C=CCn1c(=O)c2cnc(Nc3ccc(N4CCN(C)CC4)cc3)nc2n1-c1cccc(C(C)(C)O)n1 [AZD1775]; conditions: max 3 µM
Procedure, shortened: as §1

Trametinib = compound: CC(=O)Nc1cccc(-n2c(=O)n(C3CC3)c(=O)c3c(Nc4ccc(I)cc4F)n(C)c(=O)c(C)c32)c1 [Trametinib]; conditions: max 1 µM
Procedure, shortened: as §1

Palbociclib = compound: CC(=O)c1c(C)c2cnc(Nc3ccc(N4CCNCC4)cn3)nc2n(C2CCCC2)c1=O [Palbociclib]; conditions: max 10 µM
Procedure, shortened: as §1

AZD1390 = compound: CC(C)n1c(=O)n(C)c2cnc3cc(F)c(-c4ccc(OCCCN5CCCCC5)nc4)cc3c21 [AZD1390]; conditions: max 0.3 µM
Procedure, shortened: as §1

Venetoclax = compound: CC1(C)CCC(CN2CCN(c3ccc(C(=O)NS(=O)(=O)c4ccc(NCC5CCOCC5)c([N+](=O)[O-])c4)c(Oc4cnc5[nH]ccc5c4)c3)CC2)=C(c2ccc(Cl)cc2)C1 [Venetoclax]; conditions: max 1 µM
Procedure, shortened: as §1

Dasatinib = compound: CC1=C(C(=CC=C1)Cl)NC(=O)C2=CN=C(S2)NC3=CC(=NC(=N3)C)N4CCN(CC4)CCO [Dasatinib]; conditions: max 2 µM
Procedure, shortened: as §1

SG3199 = compound: CC1=CN2[C@@H](C1)C=NC3=CC(=C(C=C3C2=O)OC)OCCCCCOC4=C(C=C5C(=C4)N=C[C@@H]6CC(=CN6C5=O)C)OC [SG3199]; conditions: max 0.001 µM
Procedure, shortened: as §1

AZD2811 = compound: CCN(CCO)CCCOc1ccc2c(Nc3cc(CC(=O)Nc4cccc(F)c4)[nH]n3)ncnc2c1 [AZD2811]; conditions: max 1 µM
Procedure, shortened: as §1

SN-38 = compound: CCc1c2c(nc3ccc(O)cc13)-c1cc3c(c(=O)n1C2)COC(=O)[C@]3(O)CC [SN-38]; conditions: max 0.3 µM
Procedure, shortened: as §1

AZD0156 = compound: CN(C)CCCOc1ccc(-c2ccc3ncc4c(c3c2)n(C2CCOCC2)c(=O)n4C)cn1 [AZD0156]; conditions: max 3 µM
Procedure, shortened: as §1

AZD4320 = compound: CN(CC[C@H](CSC1=CC=CC=C1)NC2=C(C=C(C=C2)S(=O)(=O)NC(=O)C3=CC=C(C=C3)N4CCC(CC4)[C@H](C5=CC=CC=C5C6=CC=C(C=C6)Cl)O)S(=O)(=O)C(F)(F)F)CCO [AZD4320]; conditions: max 1 µM
Procedure, shortened: as §1

Alisertib = compound: COc1cc(Nc2ncc3c(n2)-c2ccc(Cl)cc2C(c2c(F)cccc2OC)=NC3)ccc1C(=O)O [Alisertib]; conditions: max 10 µM
Procedure, shortened: as §1

Gefitinib = compound: COc1cc2ncnc(Nc3ccc(F)c(Cl)c3)c2cc1OCCCN1CCOCC1 [Gefitinib]; conditions: max 10 µM
Procedure, shortened: as §1

Prexasertib = compound: COc1cccc(OCCCN)c1-c1cc(Nc2cnc(C#N)cn2)n[nH]1 [Prexasertib]; conditions: max 1 µM
Procedure, shortened: as §1

Doxorubicin = compound: COc1cccc2c1C(=O)c1c(O)c3c(c(O)c1C2=O)C[C@@](O)(C(=O)CO)C[C@@H]3O[C@H]1C[C@H](N)[C@H](O)[C@H](C)O1 [Doxorubicin]; conditions: max 1 µM
Procedure, shortened: as §1

AZD5153 = compound: COc1nnc2ccc(N3CCC(c4ccc(OCCN5CCN(C)C(=O)[C@H]5C)cc4)CC3)nn12 [AZD5153]; conditions: max 1 µM
Procedure, shortened: as §1

Lapatinib = compound: CS(=O)(=O)CCNCc1ccc(-c2ccc3ncnc(Nc4ccc(OCc5cccc(F)c5)c(Cl)c4)c3c2)o1 [Lapatinib]; conditions: max 10 µM
Procedure, shortened: as §1

AZD8186 = compound: C[C@@H](Nc1cc(F)cc(F)c1)c1cc(C(=O)N(C)C)cc2c(=O)cc(N3CCOCC3)oc12 [AZD8186]
Procedure, shortened: as §1

Crizotinib = compound: C[C@@H](Oc1cc(-c2cnn(C3CCNCC3)c2)cnc1N)c1c(Cl)ccc(F)c1Cl [Crizotinib]; conditions: max 10 µM
Procedure, shortened: as §1

Savolitinib = compound: C[C@@H](c1ccc2nccn2c1)n1nnc2ncc(-c3cnn(C)c3)nc21 [Savolitinib]; conditions: max 1 µM
Procedure, shortened: as §1

AZD6738 = compound: C[C@@H]1COCCN1C2=NC(=NC(=C2)C3(CC3)[S@](=N)(=O)C)C4=C5C=CNC5=NC=C4 [AZD6738]; conditions: max 10 µM
Procedure, shortened: as §1

AZD5991 = compound: Cc1c2c(nn1C)CSCc1cc(n(C)n1)CSc1cc(c3ccccc3c1)OCCCc1c(C(=O)O)n(C)c3c-2c(Cl)ccc13 [AZD5991]; conditions: max 1 µM
Procedure, shortened: as §1

AZD7648 = compound: Cc1cc2ncnn2cc1Nc1ncc2c(n1)n(C1CCOCC1)c(=O)n2C [AZD7648]; conditions: max 10 µM
Procedure, shortened: as §1

Taselisib = compound: Cc1nc(-c2cn3c(n2)-c2ccc(-c4cnn(C(C)(C)C(N)=O)c4)cc2OCC3)n(C(C)C)n1 [Taselisib]; conditions: max 10 µM
Procedure, shortened: as §1

Selumetinib = compound: Cn1cnc2c(F)c(Nc3ccc(Br)cc3Cl)c(C(=O)NOCCO)cc21 [Selumetinib]
Procedure, shortened: as §1

Olaparib = compound: O=C(c1cc(Cc2n[nH]c(=O)c3ccccc23)ccc1F)N1CCN(C(=O)C2CC2)CC1 [Olaparib]; conditions: max 10 µM
Procedure, shortened: as §1

Carboplatin = compound: C1CC(C1)(C(=O)[O-])C(=O)[O-].N.N.[Pt+2] [Carboplatin]; conditions: max 10 µM
Procedure, shortened: as §1

AZD5363 = compound: C1CN(CCC1(C(=O)N[C@@H](CCO)C2=CC=C(C=C2)Cl)N)C3=NC=NC4=C3C=CN4 [AZD5363]; conditions: max 10 µM
Procedure, shortened: as §1

Paclitaxel = compound: CC(=O)O[C@H]1C(=O)[C@@]2(C)[C@H]([C@H](OC(=O)c3ccccc3)[C@]3(O)C[C@H](OC(=O)[C@H](O)[C@@H](NC(=O)c4ccccc4)c4ccccc4)C(C)=C1C3(C)C)[C@]1(OC(C)=O)CO[C@@H]1C[C@@H]2O [Paclitaxel]; conditions: max 3 µM
Procedure, shortened: as §1

Etoposide = compound: COc1cc([C@@H]2c3cc4c(cc3[C@@H](O[C@@H]3O[C@@H]5CO[C@@H](C)O[C@H]5[C@H](O)[C@H]3O)[C@H]3COC(=O)[C@H]23)OCO4)cc(OC)c1O [Etoposide]; conditions: max 10 µM
Procedure, shortened: as §1

SRA737 = compound: N#Cc1cnc(Nc2cc(NC[C@H]3CNCCO3)c(C(F)(F)F)cn2)cn1 [SRA737]; conditions: max 10 µM
Procedure, shortened: as §1

MK-2206 = compound: NC1(c2ccc(-c3nc4ccn5c(=O)[nH]nc5c4cc3-c3ccccc3)cc2)CCC1 [MK-2206]; conditions: max 10 µM
Procedure, shortened: as §1

Gemcitabine = compound: Nc1ccn([C@@H]2O[C@H](CO)[C@@H](O)C2(F)F)c(=O)n1 [Gemcitabine]; conditions: max 0.3 µM
Procedure, shortened: as §1

[1] = compound: O=C(Nc1ccc2[nH]nc(-c3ccncc3)c2c1)[C@@H]1CCN(CC(=O)N2CCN(c3ccc(-c4ncccn4)cc3)CC2)C1; conditions: max 5 µM
Procedure, shortened: as §1

5-Fluorouracil = compound: O=c1[nH]cc(F)c(=O)[nH]1 [5-Fluorouracil]; conditions: max 20 µM
Procedure, shortened: as §1

Row | Cell Line | IC50, cell viability 72 h (Capivasertib; max 10 µM) | IC50, cell viability 72 h (AZD1775) | IC50, cell viability 72 h (Trametinib) | IC50, cell viability 72 h (Palbociclib) | IC50, cell viability 72 h (AZD1390) | IC50, cell viability 72 h (Venetoclax) | IC50, cell viability 72 h (Dasatinib) | IC50, cell viability 72 h (SG3199) | IC50, cell viability 72 h (AZD2811) | IC50, cell viability 72 h (SN-38) | IC50, cell viability 72 h (AZD0156) | IC50, cell viability 72 h (AZD4320) | IC50, cell viability 72 h (Alisertib) | IC50, cell viability 72 h (Gefitinib) | IC50, cell viability 72 h (Prexasertib) | IC50, cell viability 72 h (Doxorubicin) | IC50, cell viability 72 h (AZD5153) | IC50, cell viability 72 h (Lapatinib) | IC50, cell viability 72 h (AZD8186; max 3 µM) | IC50, cell viability 72 h (Crizotinib) | IC50, cell viability 72 h (Savolitinib) | IC50, cell viability 72 h (AZD6738) | IC50, cell viability 72 h (AZD5991) | IC50, cell viability 72 h (AZD7648) | IC50, cell viability 72 h (Taselisib) | IC50, cell viability 72 h (Selumetinib; max 10 µM) | IC50, cell viability 72 h (Olaparib) | IC50, cell viability 72 h (Capivasertib; max 3 µM) | IC50, cell viability 72 h (Selumetinib; max 3 µM) | IC50, cell viability 72 h (Carboplatin) | IC50, cell viability 72 h (AZD5363) | IC50, cell viability 72 h (Paclitaxel) | IC50, cell viability 72 h (Etoposide) | IC50, cell viability 72 h (AZD8186; max 10 µM) | IC50, cell viability 72 h (SRA737) | IC50, cell viability 72 h (MK-2206) | IC50, cell viability 72 h (Gemcitabine) | IC50, cell viability 72 h [1] | IC50, cell viability 72 h (5-Fluorouracil)
1 | C-4-I (Cervical Carcinoma) | > 10 µM | 0.195 µM | 0.773 µM | > 10 µM | > 0.3 µM | > 1 µM | > 2 µM | > 0.001 µM | > 1 µM | 0.041 µM | > 3 µM | > 1 µM | 3.42 µM | > 10 µM | 0.0185 µM | 0.302 µM | 0.889 µM | 7.23 µM | > 3 µM | > 10 µM | > 1 µM | 2.52 µM | 0.288 µM | > 10 µM | 2.55 µM | > 10 µM | > 10 µM | – | – | – | – | – | – | – | – | – | – | – | –
2 | HOP-62 (Lung Adenocarcinoma) | > 10 µM | > 3 µM | 0.2 µM | > 10 µM | > 0.3 µM | > 1 µM | 0.956 µM | > 0.001 µM | > 1 µM | 0.101 µM | > 3 µM | > 1 µM | 8.66 µM | > 10 µM | 0.225 µM | > 1 µM | 0.243 µM | > 10 µM | > 3 µM | > 10 µM | > 1 µM | > 10 µM | > 1 µM | > 10 µM | > 10 µM | 8.92 µM | > 10 µM | – | – | – | – | – | – | – | – | – | – | – | –
3 | JVM-3 (B-Cell Non-Hodgkin's Lymphoma) | – | 0.117 µM | 0.27 µM | – | – | > 1 µM | – | > 0.001 µM | > 1 µM | 0.00205 µM | > 3 µM | 0.0809 µM | 1.6 µM | – | 0.00734 µM | 0.0843 µM | – | – | > 3 µM | – | – | 4.32 µM | > 1 µM | > 10 µM | 1.61 µM | – | > 10 µM | > 3 µM | 1.98 µM | – | – | – | – | – | – | – | – | – | –
4 | KMOE-2 (Acute Myeloid Leukemia) | > 10 µM | 0.411 µM | 0.00174 µM | > 10 µM | > 0.3 µM | > 1 µM | > 2 µM | > 0.001 µM | > 1 µM | 0.04 µM | > 3 µM | 0.409 µM | 0.465 µM | > 10 µM | 0.0558 µM | 0.881 µM | 0.102 µM | > 10 µM | > 3 µM | > 10 µM | > 1 µM | 8.12 µM | 0.773 µM | > 10 µM | 9.87 µM | 0.104 µM | > 10 µM | – | – | – | – | – | – | – | – | – | – | – | –
5 | PANC-04-03 (Pancreatic Carcinoma) | – | > 3 µM | 0.286 µM | > 10 µM | > 0.3 µM | > 1 µM | > 2 µM | > 0.001 µM | > 1 µM | > 0.3 µM | > 3 µM | > 1 µM | > 10 µM | > 10 µM | 0.53 µM | > 1 µM | > 1 µM | > 10 µM | – | > 10 µM | > 1 µM | > 10 µM | > 1 µM | > 10 µM | 7.66 µM | > 10 µM | > 10 µM | – | – | > 10 µM | > 10 µM | 2.34 µM | > 10 µM | > 10 µM | > 10 µM | > 10 µM | > 0.3 µM | 4.53 µM | > 20 µM
6 | RF-48 (B-Cell Non-Hodgkin's Lymphoma) | – | 1.45 µM | > 1 µM | > 10 µM | > 0.3 µM | > 1 µM | > 2 µM | > 0.001 µM | > 1 µM | 0.0212 µM | > 3 µM | 0.0247 µM | > 10 µM | > 10 µM | 0.132 µM | 0.424 µM | > 1 µM | > 10 µM | – | > 10 µM | > 1 µM | > 10 µM | > 1 µM | > 10 µM | > 10 µM | > 10 µM | > 10 µM | – | – | > 10 µM | > 10 µM | 0.0199 µM | > 10 µM | > 10 µM | > 10 µM | > 10 µM | 0.0827 µM | > 5 µM | > 20 µM
